This note sets out measurements from the NIST ThermoML archive (doi:10.1021/je050296u).

Each structure is given as a SMILES string. ± gives the expanded uncertainty stated by the source.

The data set can be described thus: mn = molality of the nth substance listed, in mol/kg. To be noted: 298.15 K; 101.33 kPa; Liquid; Calvet calorimetry; m1 = 0.1.
Regarding `NCC(=O)O` [2-aminoacetic acid] + O, the apparent molar enthalpy stood at 14.2 ± 0.24 kJ/mol.

Turning to `C[C@H](N)C(=O)O` [(S)-2-aminopropanoic acid] + O, the apparent molar enthalpy was 7.57 ± 0.15 kJ/mol.

For `N[C@@H](CO)C(=O)O` [L-serine] + O, the apparent molar enthalpy was 11.3 ± 0.2 kJ/mol.
